Laboratory results reported in patent publication US20250032490A1, “THERAPEUTIC REGIMENS FOR TREATMENT OF PAROXYSMAL NOCTURNAL HEMOGLOBINURIA” (Achillion Pharmaceuticals, Inc., priority 2017, published 2025).

Test system: rabbit erythrocytes
Test: CAP-mediated hemolysis assay with rabbit erythrocytes
Format: cell-based
Settings: Oryctolagus cuniculus, Erythrocyte; for inhibition at 0.00234 µM: Compound 1 0.00234 μM; for inhibition at 0.00469 µM: Compound 1 0.00469 μM; for inhibition at 0.00938 µM: Compound 1 0.00938 μM; for inhibition at 0.0188 µM: Compound 1 0.0188 μM; for inhibition at 0.0375 µM: Compound 1 0.0375 μM; for inhibition at 0.075 µM: Compound 1 0.075 μM; for inhibition at 0.15 µM: Compound 1 0.15 μM; for inhibition at 0.75 µM: Compound 1 0.75 μM
Protocol: Inhibition was analyzed by the method of Prichard and Shipman (Prichard, M. N. and C. Shipman, Jr. A Three-Dimensional Model to Analyze Drug-Drug Interactions. Antiviral Research 1990, 14:181-205) Three-dimensional surface graphs of each experiment were generated and analyzed using an Excel spreadsheet program adapted from the MacSynergy II spreadsheet (University of Alabama, Birmingham, AL). The X-axis and Y-axis of each surface graph represent the concentrations of the two test compounds, and the Z-axis represents the difference between measured inhibition and a theoretically determined additive inhibition. For an additive relationship, the surface graph resembles a horizontal plane at Z=0, whereas positive surface peaks indicate greater inhibition than expected and therefore synergy, and negative surface peaks indicate less inhibition than expected and therefore antagonism.
Synergy and antagonism volumes were calculated separately as the summed volumes of peaks respectively above and below the Z=0 plane. Volumes were determined using 95% confidence limits to assure significance.
Inhibition was analyzed by the method of Chou and Talalay (Chou, T.-C. and P. Talalay. Analysis of Combined Drug Effects: A New Look at a Very Old Problem. Trends Pharmacol. Sci. 1983, 4:450-454; Chou, T. C. Theoretical basis, experimental design, and computerized simulation of synergism and antagonism in drug combination studies. Pharmacological Reviews 2006, 58:621-681). Analysis using the median-effect equation of Chou and Talalay was performed with CompuSyn software (ComboSyn, Inc, Paramus, NJ). […] Three constant ratios were analyzed in each experiment, centered approximately at the ratio of the individual IC50 values for the two compounds and ranging two-fold higher and lower. […] Combination index (CI) values were determined at inhibition values of 50%, 75%, and 90%. Interactions were considered additive for CI values between 0.9 and 1.1. […] Interactions were considered slightly antagonistic for CI values between 1.1 and 1.2, moderately antagonistic for CI values between 1.2 and 1.45; antagonistic for CI values between 1.45 and 3.3, and strongly antagonistic for CI values between 3.3 and 10.
Compstatin was obtained from Tocris Bioscience (Bristol, UK). The murine monoclonal antibody to human C5, isotype IgGIK, was obtained as product number A217 from Quidel (San Diego, CA). FUT-175 (nafamostat) was obtained from Calbiochem EMD Millipore (Billerica, MA).
Anti-C5 (murine monoclonal antibody to human C5, isotype IgGIK, product No. A217 from Quidel, San Diego, CA) was obtained as a 1.1 mg/mL stock in buffered saline. Gelatin veronal buffer (GVB) without Ca^++ and Mg (GVB^0), 100 mM MgCl2+100 mM EGTA (MgEGTA), normal human serum (NHS), and 5×10^8/mL rabbit erythrocytes (Er) were obtained from Complement Technology Inc. (Tyler, TX).
GVB^0·MgEGTA was prepared by mixing GVB^0 and 100 mM MgEGTA in a 9:1 ratio. Er cells were used within two weeks of purchase; before each assay cells were collected by centrifugation at 800×g and 4° C. for 3 minutes and the buffer was replaced with equal volume fresh cold GVB^0·MgEGTA.
Each of the 64 possible combinations of compounds at varying concentrations was tested in duplicate or triplicate wells. […] 50 μL GVB^0·MgEGTA was added to each well, followed by 50 μL 20% NHS in GVB^0·MgEGTA. The plates were sealed, mixed on a microtiter plate shaker, and incubated at 37° C. for 15 minutes. 20 μL Er was then added to each well and the plates were sealed, mixed, and incubated at 37° C. for 30 minutes with an added shaking at 15 minutes. The following controls were each included in quadruplicate: 2.4 μL DMSO+120 μL GVB^0·MgEGTA (representing background signal); 2.4 μL DMSO+100 μL GVB^0·MgEGTA+20 μL Er (no serum, representing 0% CAP-mediated lysis); 2.4 μL DMSO+50 μL GVB^0·MgEGTA+50 μL 20% NHS+20 μL Er (no compound, representing 100% CAP-mediated lysis); and 2.4 μL DMSO+100 μL H2O+20 μL Er (osmotic lysis, representing maximal lysis). […]

[1] = Experiment 2, Compstatin 0-30 μM
[2] = Experiment 3, Compstatin 0-30 μM
[3] = Experiment 4, Compstatin 0-30 μM

CC(=O)c1nn(CC(=O)N2C[C@H](F)C[C@H]2C(=O)Nc2cccc(Br)n2)c2ccc(-c3cnc(C)nc3)cc12 [Compound 1, (2S,4R)-1-(2-(3-acetyl-5-(2-methylpyrimidin-5-yl)-1H-indazol-1-yl)acetyl)-N-(6-bromopyridin-2-yl)-4-fluoropyrrolidine-2-carboxamide]
inhibition at 0.00234 µM [1]: 0% | inhibition at 0.00234 µM (Experiment 2, FUT-175 0-40 μM): 5% | inhibition at 0.00469 µM [1]: 0% | inhibition at 0.00469 µM (Experiment 2, FUT-175 0-40 μM): 7% | inhibition at 0.00938 µM [1]: 3.2% | inhibition at 0.00938 µM (Experiment 2, FUT-175 0-40 μM): 13% | inhibition at 0.0188 µM [1]: 16% | inhibition at 0.0188 µM (Experiment 2, FUT-175 0-40 μM): 31% | inhibition at 0.0375 µM [1]: 45% | inhibition at 0.0375 µM (Experiment 2, FUT-175 0-40 μM): 70% | inhibition at 0.075 µM [1]: 72% | inhibition at 0.15 µM [1]: 91% | inhibition at 0.15 µM (Experiment 2, FUT-175 0-40 μM): 98% | inhibition at 0.75 µM (Experiment 2, FUT-175 0-40 μM): 95% | inhibition at 0.00234 µM [2]: 3% | inhibition at 0.00234 µM (Experiment 3, FUT-175 0-40 μM): 11% | inhibition at 0.00469 µM [2]: 7.7% | inhibition at 0.00469 µM (Experiment 3, FUT-175 0-40 μM): 17% | inhibition at 0.00938 µM [2]: 22% | inhibition at 0.00938 µM (Experiment 3, FUT-175 0-40 μM): 32% | inhibition at 0.0188 µM [2]: 41% | inhibition at 0.0188 µM (Experiment 3, FUT-175 0-40 μM): 54% | inhibition at 0.037 µM (Experiment 3, Compound 1 0.037 μM, FUT-175 0-40 μM): 94% | inhibition at 0.0375 µM [2]: 73% | inhibition at 0.075 µM [2]: 96% | inhibition at 0.15 µM [2]: 98% | inhibition at 0.15 µM (Experiment 3, FUT-175 0-40 μM): 98% | inhibition at 0.75 µM (Experiment 3, FUT-175 0-40 μM): 98% | inhibition at 0.00234 µM [3]: 0.8% | inhibition at 0.00469 µM [3]: 7.1% | inhibition at 0.00938 µM [3]: 20% | inhibition at 0.0188 µM [3]: 41% | inhibition at 0.0375 µM [3]: 81% | inhibition at 0.075 µM [3]: 97% | inhibition at 0.15 µM [3]: 99% | inhibition at 0.00234 µM (Experiment #1, FUT-175 0-40 μM): 4.5% | inhibition at 0.00469 µM (Experiment #1, FUT-175 0-40 μM): 8.3% | inhibition at 0.0093 µM (Experiment #1, Compound 1 0.0093 μM, FUT-175 0-40 μM): 16% | inhibition at 0.0188 µM (Experiment #1, FUT-175 0-40 μM): 31% | inhibition at 0.0234 µM (Experiment #1, Compound 1 0.0234 μM, Compstatin 0-30 μM): 27% | inhibition at 0.0375 µM (Experiment #1, FUT-175 0-40 μM): 44% | inhibition at 0.0469 µM (Experiment #1, Compound 1 0.0469 μM, Compstatin 0-30 μM): 44% | inhibition at 0.0938 µM (Experiment #1, Compound 1 0.0938 μM, Compstatin 0-30 μM): 75% | inhibition at 0.15 µM (Experiment #1, FUT-175 0-40 μM): 96% | inhibition at 0.188 µM (Experiment #1, Compound 1 0.188 μM, Compstatin 0-30 μM): 91% | inhibition at 0.375 µM (Experiment #1, Compound 1 0.375 μM, Compstatin 0-30 μM): 98% | inhibition at 0.75 µM (Experiment #1, Compstatin 0-30 μM): 98% | inhibition at 0.75 µM (Experiment #1, FUT-175 0-40 μM): 79% | inhibition at 1.5 µM (Experiment #1, Compound 1 1.5 μM, Compstatin 0-30 μM): 98%
